The structures appear in SMILES notation.

For the experiment, the system named is AVEFA, LOLMU, ALOMY, SETVI. Put plainly: Assay 3—Glasshouse assay for pinoxaden antagonism (grass species). The conditions noted are these: used with Axial (pinoxaden) + Adigor adjuvant.
Method: A suitable glasshouse assay/test, to determine whether or not the “first herbicide”, when in a salt-free form and when not contained within polymeric microparticles, antagonises the herbicidal activity of pinoxaden, is as follows.
The troughs are watered appropriately and are not supplied with additional nutrients throughout the course of the test. […] The pinoxaden is typically used in a commercial formulation applied with recommended tank-mix adjuvants.
Crop injury (e.g. to wheat) is recorded at both 7 and 14-16 days after application; weed efficacy is only recorded at 14-16 days after application. A visual, 0-100% assessment scale is used, where 0%=no visible effects and 100%=complete plant destruction.
For example, dicamba can be applied at ca. 240 g/ha (or alternatively at from 100 to 140, e.g. ca. 120, g/ha), measured as the free acid; MCPA and/or 2,4-D can be applied at ca. 500 g/ha, measured as the free acid.
Alternatively, application rates may be identified from journal, book and/or patent publications for the specific active ingredient under test.
Antagonism of pinoxaden may then be determined by the application of Colby's formula:
(Observed 1+Observed 2)−((Observed 1×Observed 2)/100),
Where observed values are smaller than the calculated expected value, antagonism is deemed to have occurred.
For the molecule `O=C(O)COc1ccc(Cl)cc1Cl` [2,4-D acid, (2,4-dichlorophenoxy)acetic acid], the “antagonism of pinoxaden grass-herbicidal activity (in words)” value (shortened to “antagonism”) was “some reductions in pinoxaden herbicidal activity on the grassy weed species AVEFA, ALOMY, SETVI and LOLMU”. As for `Cc1cc(Cl)ccc1OCC(=O)O` [MCPA acid, (4-chloro-2-methylphenoxy)acetic acid], the “antagonism” value was “some reductions in pinoxaden herbicidal activity on the grassy weed species AVEFA, ALOMY and LOLMU”. Consider `COc1c(Cl)ccc(Cl)c1C(=O)O` [dicamba acid, 3,6-dichloro-2-methoxybenzoic acid], for which the “antagonism” value is “some reductions in pinoxaden herbicidal activity on the grassy weed species AVEFA, ALOMY and LOLMU”.

The record behind these values is patent US20140221206A1, “HERBICIDAL COMPOSITION COMPRISING POLYMERIC MICROPARTICLES CONTAINING A HERBICIDE” (SYNGENTA LIMITED, priority 2011, published 2014).
